Read-outs that look alike come from different tables or passages of the source.
Columns and labels:
[1] = test system: E. coli; assay: Quasi-clinical trial on E. coli-infected AA broilers (drug-mixed feeding); settings: AA broilers
Protocol: (§1) Then, broilers were randomly and equally divided into five different groups and marked as five groups. […] Note that the daily drug-mixed feeding ratio (g drug/kg feed) was indicated for the first 4 h every day, and unmedicated feed then followed. In addition, E. coli strains for the infection of chicken was supplied as a freeze-dried powder. They were revived and cultured according to the standard procedures. The strain was inoculated into a liquid medium and cultured in a 37 °C incubator for 6–8 h. We detected the concentration of the bacterial liquid to be 2.8 × 10^8 CFU/mL as the pathogenic concentration. Finally, all of the chickens except the healthy control group were intramuscularly injected with 0.5 mL of pathogenic bacteria, and all chickens were fasted for 4 h. After successfully simulating the bacterial infection of the chickens, the drug-mixed feeding chickens were continuously fed for 6 d. During this time, we observed their behavioral habits, mortality, and recovery rates.

[2] = Pharmacokinetic study in plasma after oral administration (HPLC-MS); settings: SD rats, plasma, EFX 10 mg/kg, EFX-Ca 12 mg/kg
[3] = test system: neutrophil cluster aggregation; assay: CuSO4-induced inflammation model in Tg(mpx:eGFP) zebrafish; settings: 10 μM CuSO4 40 min, Tg(mpx:eGFP) 3 dpf
[4] = test system: H2O2-induced ROS production; assay: H2O2-induced oxidative stress model in zebrafish (DCFH-DA); settings: 48 h pre-treatment, H2O2 1.0 mM 4 h, H2O2-induced 17,250, control 590
[5] = test system: wild type AB strain zebrafish; settings: 30 embryos per well
Protocol: Zebrafish were incubated and grown in the Joint Laboratory established by Shandong Rui’ying Pharmaceutical Group (Heze, China) and China Pharmaceutical University. Both the Wild-type AB (Danio rerio) and Tg(mpx:eGFP) zebrafish strains were maintained under the guidance of the standard procedures of The Zebrafish Book. […] Then the zebrafish were allowed to naturally mate and spawn the next morning. The normally born embryos were then collected after 1 h and kept in an incubating system at 28 °C. The 6 hpf (hour post fertilization) embryos were transferred into a 6-well plate exposed to 5 mL of egg water, in which 30 embryos were in each well.

[6] = test system: E. coli; assay: Quasi-clinical trial on E. coli-infected 817 broilers (drug-mixed feeding); settings: 817 broilers
Protocol: as §1

[7] = Protocol: All tests were conducted in the animal experimental center of Guangxi Medical University. Preliminary experiments were needed before starting official tests. […] Groups of mice (n = 10 per group, half male and half female) received different doses of the tested compounds by gavage at the same single dose of drug solution, which was uniformed to be […] (drug solution)/10 g, but containing different concentration of tested drugs. […] We compared these mice with the control group in which the mice were not given drugs, according to the pre-experimental procedure. We closely observed the mice for 6 h after the gavage for signs of toxicity and mortality. As soon as death occurred among the maximum-dose group, we conducted an autopsy and took samples from the main organs for histopathological examination. In addition, we monitored all of the tested mice for 2 weeks to record their weight and mortality.
[8] = 0.01 μM medicated bath, 120 hpf

## CCN1CCN(c2cc3c(cc2F)c(=O)c(C(=O)O)cn3C2CC2)CC1 [EFX, enrofloxacin, reference compound]
[1]; EFX single dosage 11 g + 1.5 kg feed
  Average Final Weight: 1880 ± 113 g
[1]; EFX single dosage 11 g + 1.5 kg feed, Table 7
  Average Weight Gain: 380
[1]; EFX single dosage 11 g + 1.5 kg feed, Table 8
  Average Increment of Weight: 250 g
[1]; EFX single dosage 11 g drug (5% solution) + 1.5 kg feed/4 h, 6 d
  Cure Rate (%): 62%
[1]; EFX single dosage 11 g drug (5% solution) + 1.5 kg feed/4 h, 6 d, 50 per group
  Survival Number: 31
[2]
  Ke: 0.28
  t 1/2β: 2.43 H
[3]; 0.1 μM pre-incubation 1 h
  CuSO4-induced neutrophil aggregation: still maintained obvious clustering status
[3]; 1 μM pre-incubation 1 h
  CuSO4-induced neutrophil aggregation: partial aggregations of the neutrophils could be observed
[4]; 0.01 μM
  Average IOD (integrated optical density) of green fluorescence: 970 a.u.
[4]; 0.1 μM
  Average IOD (integrated optical density) of green fluorescence: 772 a.u.
[4]; 1 μM
  Average IOD (integrated optical density) of green fluorescence: 848 a.u.
[5]; 0.01 μM medicated bath, 24 hpf
  statistical death of the tested zebrafish: 6
  statistical survival of the tested zebrafish: 24
[5]; 0.01 μM medicated bath, 48 hpf
  statistical death of the tested zebrafish: 6
  statistical survival of the tested zebrafish: 24
[5]; 0.01 μM medicated bath, 72 hpf
  statistical death of the tested zebrafish: 6
  statistical survival of the tested zebrafish: 24
[5]; 0.01 μM medicated bath, 96 hpf
  statistical death of the tested zebrafish: 6
  statistical survival of the tested zebrafish: 24
[5]; [8]
  statistical death of the tested zebrafish: 6
  statistical survival of the tested zebrafish: 24
[5]; 0.1 μM medicated bath, 24 hpf
  statistical death of the tested zebrafish: 4
  statistical survival of the tested zebrafish: 26
[5]; 0.1 μM medicated bath, 48 hpf
  statistical death of the tested zebrafish: 4
  statistical survival of the tested zebrafish: 26
[5]; 0.1 μM medicated bath, 72 hpf
  statistical death of the tested zebrafish: 4
  statistical survival of the tested zebrafish: 26
[5]; 0.1 μM medicated bath, 96 hpf
  statistical death of the tested zebrafish: 4
  statistical survival of the tested zebrafish: 26
[5]; 0.1 μM medicated bath, 120 hpf
  statistical death of the tested zebrafish: 4
  statistical survival of the tested zebrafish: 26
[5]; 1 μM medicated bath, 24 hpf
  statistical death of the tested zebrafish: 2
  statistical survival of the tested zebrafish: 28
[5]; 1 μM medicated bath, 48 hpf
  statistical death of the tested zebrafish: 2
  statistical survival of the tested zebrafish: 28
[5]; 1 μM medicated bath, 72 hpf
  statistical death of the tested zebrafish: 2
  statistical survival of the tested zebrafish: 28
[5]; 1 μM medicated bath, 96 hpf
  statistical death of the tested zebrafish: 2
  statistical survival of the tested zebrafish: 28
[5]; 1 μM medicated bath, 120 hpf
  statistical death of the tested zebrafish: 2
  statistical survival of the tested zebrafish: 28
[5]; 10 μM medicated bath, 24 hpf
  statistical death of the tested zebrafish: 2
  statistical survival of the tested zebrafish: 28
[5]; 10 μM medicated bath, 48 hpf
  statistical death of the tested zebrafish: 2
  statistical survival of the tested zebrafish: 28
[5]; 10 μM medicated bath, 72 hpf
  statistical death of the tested zebrafish: 2
  statistical survival of the tested zebrafish: 28
[5]; 10 μM medicated bath, 96 hpf
  statistical death of the tested zebrafish: 2
  statistical survival of the tested zebrafish: 28
[5]; 10 μM medicated bath, 120 hpf
  statistical death of the tested zebrafish: 2
  statistical survival of the tested zebrafish: 28
[5]; 20 μM medicated bath, 24 hpf
  statistical death of the tested zebrafish: 4
  statistical survival of the tested zebrafish: 26
[5]; 20 μM medicated bath, 48 hpf
  statistical death of the tested zebrafish: 4
  statistical survival of the tested zebrafish: 26
[5]; 20 μM medicated bath, 72 hpf
  statistical death of the tested zebrafish: 4
  statistical survival of the tested zebrafish: 26
[5]; 20 μM medicated bath, 96 hpf
  statistical death of the tested zebrafish: 4
  statistical survival of the tested zebrafish: 26
[5]; 20 μM medicated bath, 120 hpf
  statistical death of the tested zebrafish: 4
  statistical survival of the tested zebrafish: 26
[6]; EFX single dosage 11 g + 0.75 kg feed
  Average Final Weight: 1030 ± 74 g
[6]; EFX single dosage 11 g + 0.75 kg feed, Table 7
  Average Weight Gain: 100
[6]; EFX single dosage 11 g + 0.75 kg feed, Table 8
  Average Increment of Weight: 140 g
[6]; EFX single dosage 11 g drug (5% solution) + 0.75 kg feed/4 h, 6 d
  Cure Rate (%): 64%
[6]; EFX single dosage 11 g drug (5% solution) + 0.75 kg feed/4 h, 6 d, 50 per group
  Survival Number: 32
[7]; 2000 mg/kg single gavage, Day-0
  Body Weight (g, x¯ ± SD): 18.35 ± 1.87 g
[7]; 2000 mg/kg single gavage, Day-1
  Body Weight (g, x¯ ± SD): 20.21 ± 2.06 g
[7]; 2000 mg/kg single gavage, Day-4
  Body Weight (g, x¯ ± SD): 25.19 ± 1.81 g
[7]; 2000 mg/kg single gavage, Day-7
  Body Weight (g, x¯ ± SD): 28.89 ± 1.99 g
[7]; 2000 mg/kg single gavage, Day-14
  Body Weight (g, x¯ ± SD): 36.93 ± 3.07 g
[7]; 3031 mg/kg single gavage, Day-0
  Body Weight (g, x¯ ± SD): 18.40 ± 1.78 g
[7]; 3031 mg/kg single gavage, Day-1
  Body Weight (g, x¯ ± SD): 19.20 ± 2.18 g
[7]; 3031 mg/kg single gavage, Day-4
  Body Weight (g, x¯ ± SD): 24.83 ± 3.08 g
[7]; 3031 mg/kg single gavage, Day-7
  Body Weight (g, x¯ ± SD): 29.17 ± 2.51 g
[7]; 3031 mg/kg single gavage, Day-14
  Body Weight (g, x¯ ± SD): 33.20 ± 4.46 g
[7]; 4595 mg/kg single gavage, Day-0
  Body Weight (g, x¯ ± SD): 18.67 ± 1.05 g
[7]; 4595 mg/kg single gavage, Day-1
  Body Weight (g, x¯ ± SD): 19.14 ± 0.96 g
[7]; 4595 mg/kg single gavage, Day-4
  Body Weight (g, x¯ ± SD): 23.54 ± 1.44 g
[7]; 4595 mg/kg single gavage, Day-7
  Body Weight (g, x¯ ± SD): 28.20 ± 1.52 g
[7]; 4595 mg/kg single gavage, Day-14
  Body Weight (g, x¯ ± SD): 33.96 ± 2.53 g
[7]; 6964 mg/kg single gavage, Day-0
  Body Weight (g, x¯ ± SD): 18.59 ± 1.34 g
[7]; 6964 mg/kg single gavage, Day-1
  Body Weight (g, x¯ ± SD): 19.68 ± 1.06 g
[7]; 6964 mg/kg single gavage, Day-4
  Body Weight (g, x¯ ± SD): 23.85 ± 1.88 g
[7]; 6964 mg/kg single gavage, Day-7
  Body Weight (g, x¯ ± SD): 27.98 ± 3.40 g
[7]; 6964 mg/kg single gavage, Day-14
  Body Weight (g, x¯ ± SD): 36.13 ± 5.35 g
[7]; 16,000 mg/kg single gavage, Day-0
  Body Weight (g, x¯ ± SD): 18.86 ± 1.03 g
[7]; 16,000 mg/kg single gavage, Day-1
  Body Weight (g, x¯ ± SD): 18.55 ± 1.70 g
[7]; 16,000 mg/kg single gavage, Day-7
  Body Weight (g, x¯ ± SD): 24.35 ± 2.63 g
[7]; 16,000 mg/kg single gavage, Day-14
  Body Weight (g, x¯ ± SD): 33.20 ± 4.00 g

Reference: paper PMC8878047 (Pharmaceutics, 2022)
